{
  "source": "patent US20120034193A1",
  "about": "“TREATMENT OF NEUROTROPHIC FACTOR MEDIATED DISORDERS” (priority 2009, published 2012)",
  "experiment_in_all_cases": "Binding assay",
  "settings_in_all_cases": "smilagenin 1 μM",
  "key": {"Somatostatin sst2": {"molecular_target": "Somatostatin sst2 (Homo sapiens, UniProt P30874)", "sequence (P30874 whole entry)": "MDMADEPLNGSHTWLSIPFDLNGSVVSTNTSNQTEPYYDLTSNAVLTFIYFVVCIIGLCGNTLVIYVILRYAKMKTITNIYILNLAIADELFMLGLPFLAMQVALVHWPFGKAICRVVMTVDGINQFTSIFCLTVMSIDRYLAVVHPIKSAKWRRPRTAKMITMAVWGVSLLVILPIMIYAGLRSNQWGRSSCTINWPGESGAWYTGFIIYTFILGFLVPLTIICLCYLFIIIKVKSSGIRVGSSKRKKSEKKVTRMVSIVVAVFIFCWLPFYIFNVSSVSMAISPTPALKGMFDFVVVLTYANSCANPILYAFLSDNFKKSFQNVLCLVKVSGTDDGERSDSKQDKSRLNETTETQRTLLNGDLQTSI", "experimental": "(§1) The receptor binding was investigated using the following method: Sarsasapogenin was incubated with tissue or cell homogenate that expressed the receptor of interest and a known concentration a radiolabelled compound with affinity for the receptor of interest. After the incubation period the non-bound radiolabelled compound was removed and the amount of specific binding was quantified. The amount of specific binding in the presence and absence of sarsasapogenin were compared and the percent inhibition of the binding of the radiolabelled compound by sarsasapogenin was calculated. The source of the receptor, the incubation conditions, the radiolabelled compound used varied depending on each specific assay.\n(§2) Using the same methods as described above, the binding of smilagenin (1 μM) to the receptors listed in Table 2 below, and the effect of smilagenin on the activity of the enzymes listed in Table 2 below, were investigated."}, "Bombesin BB2": {"molecular_target": "Bombesin BB2 (Homo sapiens, UniProt P30550)", "sequence (P30550 whole entry)": "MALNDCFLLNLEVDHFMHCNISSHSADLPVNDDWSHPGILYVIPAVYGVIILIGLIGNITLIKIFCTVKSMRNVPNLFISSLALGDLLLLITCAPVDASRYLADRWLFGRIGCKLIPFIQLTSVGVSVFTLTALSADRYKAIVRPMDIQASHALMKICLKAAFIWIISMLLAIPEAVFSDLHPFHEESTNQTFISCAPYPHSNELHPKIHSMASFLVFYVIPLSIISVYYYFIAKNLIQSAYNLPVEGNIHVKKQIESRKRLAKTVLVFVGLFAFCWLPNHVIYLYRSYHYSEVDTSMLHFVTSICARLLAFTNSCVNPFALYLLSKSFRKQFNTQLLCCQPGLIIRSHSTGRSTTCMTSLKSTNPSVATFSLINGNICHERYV", "experimental": "as §1, §2"}, "Somatostatin sstl": {"molecular_target": "Somatostatin sstl (Homo sapiens, UniProt P30872)", "sequence (P30872 whole entry)": "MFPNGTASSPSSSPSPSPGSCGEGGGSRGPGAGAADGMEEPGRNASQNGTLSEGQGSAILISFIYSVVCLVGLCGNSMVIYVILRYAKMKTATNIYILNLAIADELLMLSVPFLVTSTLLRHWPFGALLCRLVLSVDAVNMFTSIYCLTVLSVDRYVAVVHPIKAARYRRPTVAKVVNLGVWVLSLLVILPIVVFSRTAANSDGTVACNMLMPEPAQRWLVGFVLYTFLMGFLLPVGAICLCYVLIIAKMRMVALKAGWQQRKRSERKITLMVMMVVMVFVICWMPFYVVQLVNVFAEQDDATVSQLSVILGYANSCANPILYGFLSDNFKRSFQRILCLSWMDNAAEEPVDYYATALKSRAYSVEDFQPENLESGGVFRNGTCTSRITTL", "experimental": "as §1, §2"}, "Dopamine D3": {"molecular_target": "Dopamine D3 (Homo sapiens, UniProt P35462)", "experimental": "as §1, §2"}, "Urotensin II": {"molecular_target": "T1, Urotensin II (Homo sapiens, UniProt Q9UKP6)", "T1 construct": "host or cells: tissue or cell homogenate, not specified", "T1 sequence (Q9UKP6 whole entry)": "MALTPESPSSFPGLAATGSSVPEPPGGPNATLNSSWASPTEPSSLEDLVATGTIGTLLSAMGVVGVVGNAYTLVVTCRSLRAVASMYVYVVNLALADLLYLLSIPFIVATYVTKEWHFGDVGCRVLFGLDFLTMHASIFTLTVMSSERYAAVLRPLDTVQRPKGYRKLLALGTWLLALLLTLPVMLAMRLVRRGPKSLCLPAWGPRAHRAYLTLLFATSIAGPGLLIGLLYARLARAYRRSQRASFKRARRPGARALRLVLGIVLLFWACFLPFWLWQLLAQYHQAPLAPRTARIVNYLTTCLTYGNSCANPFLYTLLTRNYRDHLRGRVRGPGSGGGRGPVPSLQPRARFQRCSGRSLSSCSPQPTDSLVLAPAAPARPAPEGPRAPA", "experimental": "as §1, §2"}, "Retanoid X Receptor RXRα": {"molecular_target": "Retanoid X Receptor RXRα (Homo sapiens, UniProt P19793)", "experimental": "as §1, §2"}, "Histamine H4": {"molecular_target": "Histamine H4 (Homo sapiens, UniProt Q9H3N8)", "experimental": "as §1, §2"}, "Vitamin D3": {"molecular_target": "T2, Vitamin D3 (Homo sapiens, UniProt P11473)", "T2 construct": "host or cells: tissue or cell homogenate, not specified", "experimental": "as §1, §2"}, "[1]": {"molecular_target": "T3, G Protein-Coupled Receptor GPR8 (Homo sapiens, UniProt P48146)", "T3 construct": "host or cells: tissue or cell homogenate (not specified)", "T3 sequence (P48146 whole entry)": "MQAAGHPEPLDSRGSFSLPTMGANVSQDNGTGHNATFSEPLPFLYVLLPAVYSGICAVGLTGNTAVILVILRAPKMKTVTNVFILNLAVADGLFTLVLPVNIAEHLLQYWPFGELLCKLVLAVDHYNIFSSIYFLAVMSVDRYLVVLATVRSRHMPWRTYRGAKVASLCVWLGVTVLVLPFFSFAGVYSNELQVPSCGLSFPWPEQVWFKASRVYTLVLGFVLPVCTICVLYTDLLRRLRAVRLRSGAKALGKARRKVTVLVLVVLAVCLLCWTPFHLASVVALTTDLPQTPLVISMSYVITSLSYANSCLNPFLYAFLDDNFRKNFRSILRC", "experimental": "as §1, §2"}, "Opiate μ (OP3, MOP)": {"molecular_target": "Opiate μ (OP3, MOP) (Homo sapiens, UniProt P35372)", "sequence (P35372 whole entry)": "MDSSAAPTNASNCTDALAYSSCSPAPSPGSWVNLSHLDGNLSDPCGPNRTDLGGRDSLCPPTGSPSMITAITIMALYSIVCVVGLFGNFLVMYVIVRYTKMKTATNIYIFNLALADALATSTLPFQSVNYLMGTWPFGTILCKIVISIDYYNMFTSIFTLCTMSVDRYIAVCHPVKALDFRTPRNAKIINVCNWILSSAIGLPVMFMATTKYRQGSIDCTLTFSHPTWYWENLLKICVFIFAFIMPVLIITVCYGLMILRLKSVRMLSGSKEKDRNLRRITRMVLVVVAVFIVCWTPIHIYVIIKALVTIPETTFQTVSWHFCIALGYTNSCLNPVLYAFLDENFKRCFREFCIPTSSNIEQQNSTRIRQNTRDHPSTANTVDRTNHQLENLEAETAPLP", "experimental": "as §1, §2"}, "Vasopressin V1B": {"molecular_target": "T4, Vasopressin V1B (Homo sapiens, UniProt P47901)", "T4 construct": "host or cells: tissue or cell homogenate, not specified", "experimental": "as §1, §2"}, "Muscarinic M5": {"molecular_target": "T5, Muscarinic M5 (Homo sapiens, UniProt P08912)", "T5 construct": "host or cells: tissue or cell homogenate, not specified", "experimental": "as §1, §2"}, "[2]": {"molecular_target": "T6, G Protein-Coupled Receptor GPR 103 (Homo sapiens, UniProt Q96P65)", "T6 construct": "host or cells: tissue or cell homogenate (not specified)", "T6 sequence (Q96P65 whole entry)": "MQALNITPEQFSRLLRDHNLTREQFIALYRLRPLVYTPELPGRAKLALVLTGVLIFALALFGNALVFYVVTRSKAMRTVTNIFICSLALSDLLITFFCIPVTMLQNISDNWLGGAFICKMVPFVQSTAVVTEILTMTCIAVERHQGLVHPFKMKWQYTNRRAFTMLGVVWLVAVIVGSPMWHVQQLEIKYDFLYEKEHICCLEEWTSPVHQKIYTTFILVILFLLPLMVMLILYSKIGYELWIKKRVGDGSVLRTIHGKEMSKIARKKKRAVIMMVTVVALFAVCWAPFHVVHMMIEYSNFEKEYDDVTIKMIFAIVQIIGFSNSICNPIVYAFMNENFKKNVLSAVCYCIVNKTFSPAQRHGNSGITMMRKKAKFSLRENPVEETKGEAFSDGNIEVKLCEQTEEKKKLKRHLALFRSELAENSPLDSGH", "experimental": "as §1, §2"}, "Histamine H3": {"molecular_target": "T7, Histamine H3 (Homo sapiens, UniProt Q9Y5N1)", "T7 construct": "host or cells: tissue or cell homogenate (not specified)", "experimental": "as §1, §2"}, "[3]": {"molecular_target": "Thyrotropin Releasing Hormone (TRH) (Rattus norvegicus, UniProt Q01717)", "experimental": "as §1, §2"}, "[4]": {"molecular_target": "Prostanoid Thromboxane A2 (TP) (Homo sapiens, UniProt P21731)", "experimental": "as §1, §2"}, "[5]": {"molecular_target": "T8, Growth Hormone Secretagogue (GHS, Ghrelin) (Homo sapiens, UniProt Q92847)", "T8 construct": "host or cells: tissue or cell homogenate (not specified)", "experimental": "as §1, §2"}, "Adrenergic α1D": {"molecular_target": "Adrenergic α1D (Homo sapiens, UniProt P25100)", "sequence (P25100 whole entry)": "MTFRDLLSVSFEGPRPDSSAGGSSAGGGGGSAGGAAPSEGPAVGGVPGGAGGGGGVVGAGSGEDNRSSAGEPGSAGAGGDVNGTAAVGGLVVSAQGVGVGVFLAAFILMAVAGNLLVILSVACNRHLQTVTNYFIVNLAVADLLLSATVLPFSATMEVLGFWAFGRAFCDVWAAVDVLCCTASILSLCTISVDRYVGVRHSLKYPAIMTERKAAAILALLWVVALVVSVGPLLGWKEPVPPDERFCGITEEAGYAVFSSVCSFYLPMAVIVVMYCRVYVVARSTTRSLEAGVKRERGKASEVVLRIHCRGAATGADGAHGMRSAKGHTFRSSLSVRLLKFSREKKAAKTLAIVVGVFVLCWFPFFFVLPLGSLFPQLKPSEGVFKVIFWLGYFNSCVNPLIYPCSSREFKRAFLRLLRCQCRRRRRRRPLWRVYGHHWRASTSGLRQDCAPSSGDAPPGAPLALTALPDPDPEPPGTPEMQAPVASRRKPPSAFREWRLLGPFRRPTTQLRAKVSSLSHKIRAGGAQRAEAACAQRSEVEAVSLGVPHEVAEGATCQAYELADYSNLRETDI", "experimental": "as §1, §2"}, "Dopamine D1": {"molecular_target": "T9, Dopamine D1 (Homo sapiens, UniProt P21728)", "T9 construct": "host or cells: tissue or cell homogenate, not specified", "T9 sequence (P21728 whole entry)": "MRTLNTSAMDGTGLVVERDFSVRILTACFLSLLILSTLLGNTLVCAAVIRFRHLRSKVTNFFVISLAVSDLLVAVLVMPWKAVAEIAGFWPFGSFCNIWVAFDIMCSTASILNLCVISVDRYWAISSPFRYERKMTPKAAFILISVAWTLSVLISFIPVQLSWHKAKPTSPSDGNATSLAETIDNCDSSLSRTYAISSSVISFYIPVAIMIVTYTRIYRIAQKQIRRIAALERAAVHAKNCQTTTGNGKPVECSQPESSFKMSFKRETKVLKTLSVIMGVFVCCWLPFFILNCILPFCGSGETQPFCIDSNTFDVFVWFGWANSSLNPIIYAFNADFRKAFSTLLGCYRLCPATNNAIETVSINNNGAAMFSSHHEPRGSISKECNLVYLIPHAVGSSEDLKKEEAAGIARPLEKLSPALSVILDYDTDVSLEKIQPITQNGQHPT", "experimental": "as §1, §2"}, "[6]": {"molecular_target": "T10, Vasoactive Intestinal Peptide, VIP1 (Homo sapiens, UniProt P32241)", "T10 construct": "host or cells: tissue or cell homogenate, not specified", "experimental": "as §1, §2"}, "GABAB1A": {"molecular_target": "T11, GABAB1A (Homo sapiens, UniProt Q9UBS5)", "T11 construct": "host or cells: tissue or cell homogenate (not specified)", "experimental": "as §1, §2"}, "[7]": {"molecular_target": "Cholecystokinin CCK2 (CCKB) (Homo sapiens, UniProt P32239)", "sequence (P32239 whole entry)": "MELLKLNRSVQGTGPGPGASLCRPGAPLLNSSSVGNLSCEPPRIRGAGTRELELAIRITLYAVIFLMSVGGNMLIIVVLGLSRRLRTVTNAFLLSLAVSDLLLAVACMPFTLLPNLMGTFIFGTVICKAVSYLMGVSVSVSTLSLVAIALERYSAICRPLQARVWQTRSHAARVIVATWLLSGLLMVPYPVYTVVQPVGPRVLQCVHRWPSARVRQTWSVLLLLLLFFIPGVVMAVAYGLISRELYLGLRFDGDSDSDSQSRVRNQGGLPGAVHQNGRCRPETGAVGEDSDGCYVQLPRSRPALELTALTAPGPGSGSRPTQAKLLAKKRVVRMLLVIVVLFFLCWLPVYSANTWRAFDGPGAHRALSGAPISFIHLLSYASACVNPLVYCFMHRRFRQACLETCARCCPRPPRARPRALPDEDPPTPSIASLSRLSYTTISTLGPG", "experimental": "as §1, §2"}, "Dopamine D4.2": {"molecular_target": "Dopamine D4.2 (Homo sapiens, UniProt P21917, DEL265-296)", "experimental": "as §1, §2"}, "Tachykinin NK3": {"molecular_target": "Tachykinin NK3 (Homo sapiens, UniProt P29371)", "experimental": "as §1, §2"}, "[8]": {"molecular_target": "Leukotriene, Cysteinyl CysLT1 (Homo sapiens, UniProt Q9Y271)", "experimental": "as §1, §2"}, "Adrenergic β2": {"molecular_target": "Adrenergic β2 (Homo sapiens, UniProt P07550)", "experimental": "as §1, §2"}, "Anaphylatoxin C5a": {"molecular_target": "Anaphylatoxin C5a (Homo sapiens, UniProt P21730)", "experimental": "as §1, §2"}, "Chemokine CCR1": {"molecular_target": "Chemokine CCR1 (Homo sapiens, UniProt P32246)", "experimental": "as §1, §2"}, "Somatostatin sst5": {"molecular_target": "Somatostatin sst5 (Homo sapiens, UniProt P35346)", "experimental": "as §1, §2"}, "Prostanoid CRTH2": {"molecular_target": "Prostanoid CRTH2 (Homo sapiens, UniProt Q9Y5Y4)", "experimental": "as §1, §2"}, "[9]": {"molecular_target": "N-Formyl Peptide Receptor-Like FPRL1 (Homo sapiens, UniProt P25090)", "experimental": "as §1, §2"}, "Potassium Channel [KATP]": {"system": "Potassium Channel [KATP]", "experimental": "as §1, §2"}, "Bombesin BB1": {"molecular_target": "Bombesin BB1 (Homo sapiens, UniProt P28336)", "experimental": "as §1, §2"}, "[10]": {"molecular_target": "Androgen (testosterone) AR (Rattus norvegicus, UniProt P15207)", "experimental": "as §1, §2"}, "Cannabinoid CB1": {"molecular_target": "Cannabinoid CB1 (Homo sapiens, UniProt P21554)", "sequence (P21554 whole entry)": "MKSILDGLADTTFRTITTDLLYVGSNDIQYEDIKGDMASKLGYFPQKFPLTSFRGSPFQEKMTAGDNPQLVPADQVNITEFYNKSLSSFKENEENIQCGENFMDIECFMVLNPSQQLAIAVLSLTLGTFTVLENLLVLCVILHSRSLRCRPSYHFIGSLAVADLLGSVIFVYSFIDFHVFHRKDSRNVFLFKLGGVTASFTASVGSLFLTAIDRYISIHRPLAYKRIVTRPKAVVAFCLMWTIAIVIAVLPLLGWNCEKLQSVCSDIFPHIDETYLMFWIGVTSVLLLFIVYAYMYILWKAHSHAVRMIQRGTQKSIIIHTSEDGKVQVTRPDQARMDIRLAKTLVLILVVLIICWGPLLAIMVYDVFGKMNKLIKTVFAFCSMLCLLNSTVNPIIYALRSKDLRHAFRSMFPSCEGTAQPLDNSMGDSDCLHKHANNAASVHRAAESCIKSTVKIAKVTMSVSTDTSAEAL", "experimental": "as §1, §2"}, "Muscarinic M2": {"molecular_target": "T12, Muscarinic M2 (Homo sapiens, UniProt P08172)", "T12 construct": "host or cells: tissue or cell homogenate, not specified", "experimental": "as §1, §2"}},
  "data": [
    {"compound": "C[C@@H]1CC[C@@]2(OC1)O[C@H]1C[C@H]3[C@@H]4CC[C@@H]5C[C@@H](O)CC[C@]5(C)[C@H]4CC[C@]3(C)[C@H]1[C@@H]2C", "note": "[Smilagenin, smilagenin]", "values": [
      {"measurement": "Effect (%)", "setting": "Somatostatin sst2", "result": "NS (NS = No significant response. Significance was taken as ≧30% stimulation or inhibition)"},
      {"measurement": "Effect (%)", "setting": "Bombesin BB2", "result": "NS (NS = No significant response. Significance was taken as ≧30% stimulation or inhibition)"},
      {"measurement": "Effect (%)", "setting": "Somatostatin sstl", "result": "NS (NS = No significant response. Significance was taken as ≧30% stimulation or inhibition)"},
      {"measurement": "Effect (%)", "setting": "Dopamine D3", "result": "NS (NS = No significant response. Significance was taken as ≧30% stimulation or inhibition)"},
      {"measurement": "Effect (%)", "setting": "Urotensin II", "result": "NS (NS = No significant response. Significance was taken as ≧30% stimulation or inhibition)"},
      {"measurement": "Effect (%)", "setting": "Retanoid X Receptor RXRα", "result": "NS (NS = No significant response. Significance was taken as ≧30% stimulation or inhibition)"},
      {"measurement": "Effect (%)", "setting": "Histamine H4", "result": "NS (NS = No significant response. Significance was taken as ≧30% stimulation or inhibition)"},
      {"measurement": "Effect (%)", "setting": "Vitamin D3", "result": "NS (NS = No significant response. Significance was taken as ≧30% stimulation or inhibition)"},
      {"measurement": "Effect (%)", "setting": "[1]", "result": "NS (NS = No significant response. Significance was taken as ≧30% stimulation or inhibition)"},
      {"measurement": "Effect (%)", "setting": "Opiate μ (OP3, MOP)", "result": "NS (NS = No significant response. Significance was taken as ≧30% stimulation or inhibition)"},
      {"measurement": "Effect (%)", "setting": "Vasopressin V1B", "result": "NS (NS = No significant response. Significance was taken as ≧30% stimulation or inhibition)"},
      {"measurement": "Effect (%)", "setting": "Muscarinic M5", "result": "NS (NS = No significant response. Significance was taken as ≧30% stimulation or inhibition)"},
      {"measurement": "Effect (%)", "setting": "[2]", "result": "NS (NS = No significant response. Significance was taken as ≧30% stimulation or inhibition)"},
      {"measurement": "Effect (%)", "setting": "Histamine H3", "result": "NS (NS = No significant response. Significance was taken as ≧30% stimulation or inhibition)"},
      {"measurement": "Effect (%)", "setting": "[3]", "result": "NS (NS = No significant response. Significance was taken as ≧30% stimulation or inhibition)"},
      {"measurement": "Effect (%)", "setting": "[4]", "result": "NS (NS = No significant response. Significance was taken as ≧30% stimulation or inhibition)"},
      {"measurement": "Effect (%)", "setting": "[5]", "result": "NS (NS = No significant response. Significance was taken as ≧30% stimulation or inhibition)"},
      {"measurement": "Effect (%)", "setting": "Adrenergic α1D", "result": "NS (NS = No significant response. Significance was taken as ≧30% stimulation or inhibition)"},
      {"measurement": "Effect (%)", "setting": "Dopamine D1", "result": "NS (NS = No significant response. Significance was taken as ≧30% stimulation or inhibition)"},
      {"measurement": "Effect (%)", "setting": "[6]", "result": "NS (NS = No significant response. Significance was taken as ≧30% stimulation or inhibition)"},
      {"measurement": "Effect (%)", "setting": "GABAB1A", "result": "NS (NS = No significant response. Significance was taken as ≧30% stimulation or inhibition)"},
      {"measurement": "Effect (%)", "setting": "[7]", "result": "NS (NS = No significant response. Significance was taken as ≧30% stimulation or inhibition)"},
      {"measurement": "Effect (%)", "setting": "Dopamine D4.2", "result": "NS (NS = No significant response. Significance was taken as ≧30% stimulation or inhibition)"},
      {"measurement": "Effect (%)", "setting": "Tachykinin NK3", "result": "NS (NS = No significant response. Significance was taken as ≧30% stimulation or inhibition)"},
      {"measurement": "Effect (%)", "setting": "[8]", "result": "NS (NS = No significant response. Significance was taken as ≧30% stimulation or inhibition)"},
      {"measurement": "Effect (%)", "setting": "Adrenergic β2", "result": "NS (NS = No significant response. Significance was taken as ≧30% stimulation or inhibition)"},
      {"measurement": "Effect (%)", "setting": "Anaphylatoxin C5a", "result": "NS (NS = No significant response. Significance was taken as ≧30% stimulation or inhibition)"},
      {"measurement": "Effect (%)", "setting": "Chemokine CCR1", "result": "NS (NS = No significant response. Significance was taken as ≧30% stimulation or inhibition)"},
      {"measurement": "Effect (%)", "setting": "Somatostatin sst5", "result": "NS (NS = No significant response. Significance was taken as ≧30% stimulation or inhibition)"},
      {"measurement": "Effect (%)", "setting": "Prostanoid CRTH2", "result": "NS (NS = No significant response. Significance was taken as ≧30% stimulation or inhibition)"},
      {"measurement": "Effect (%)", "setting": "[9]", "result": "NS (NS = No significant response. Significance was taken as ≧30% stimulation or inhibition)"},
      {"measurement": "Effect (%)", "setting": "Potassium Channel [KATP]", "result": "NS (NS = No significant response. Significance was taken as ≧30% stimulation or inhibition)"},
      {"measurement": "Effect (%)", "setting": "Bombesin BB1", "result": "NS (NS = No significant response. Significance was taken as ≧30% stimulation or inhibition)"},
      {"measurement": "Effect (%)", "setting": "[10]", "result": "NS (NS = No significant response. Significance was taken as ≧30% stimulation or inhibition)"},
      {"measurement": "Effect (%)", "setting": "Cannabinoid CB1", "result": "NS (NS = No significant response. Significance was taken as ≧30% stimulation or inhibition)"},
      {"measurement": "Effect (%)", "setting": "Muscarinic M2", "result": "NS (NS = No significant response. Significance was taken as ≧30% stimulation or inhibition)"}
    ]}
  ]
}
